This experiment deals with T1, NPR-B (Mus musculus, UniProt Q6VVW5).
T1 construct: Murine NIH3T3 cells express endogenously the CNP signaling receptor, NPR-B; endogenous in cells; host or cells: NIH3T3 (murine fibroblasts)
T1 sequence (Q6VVW5 17-1047): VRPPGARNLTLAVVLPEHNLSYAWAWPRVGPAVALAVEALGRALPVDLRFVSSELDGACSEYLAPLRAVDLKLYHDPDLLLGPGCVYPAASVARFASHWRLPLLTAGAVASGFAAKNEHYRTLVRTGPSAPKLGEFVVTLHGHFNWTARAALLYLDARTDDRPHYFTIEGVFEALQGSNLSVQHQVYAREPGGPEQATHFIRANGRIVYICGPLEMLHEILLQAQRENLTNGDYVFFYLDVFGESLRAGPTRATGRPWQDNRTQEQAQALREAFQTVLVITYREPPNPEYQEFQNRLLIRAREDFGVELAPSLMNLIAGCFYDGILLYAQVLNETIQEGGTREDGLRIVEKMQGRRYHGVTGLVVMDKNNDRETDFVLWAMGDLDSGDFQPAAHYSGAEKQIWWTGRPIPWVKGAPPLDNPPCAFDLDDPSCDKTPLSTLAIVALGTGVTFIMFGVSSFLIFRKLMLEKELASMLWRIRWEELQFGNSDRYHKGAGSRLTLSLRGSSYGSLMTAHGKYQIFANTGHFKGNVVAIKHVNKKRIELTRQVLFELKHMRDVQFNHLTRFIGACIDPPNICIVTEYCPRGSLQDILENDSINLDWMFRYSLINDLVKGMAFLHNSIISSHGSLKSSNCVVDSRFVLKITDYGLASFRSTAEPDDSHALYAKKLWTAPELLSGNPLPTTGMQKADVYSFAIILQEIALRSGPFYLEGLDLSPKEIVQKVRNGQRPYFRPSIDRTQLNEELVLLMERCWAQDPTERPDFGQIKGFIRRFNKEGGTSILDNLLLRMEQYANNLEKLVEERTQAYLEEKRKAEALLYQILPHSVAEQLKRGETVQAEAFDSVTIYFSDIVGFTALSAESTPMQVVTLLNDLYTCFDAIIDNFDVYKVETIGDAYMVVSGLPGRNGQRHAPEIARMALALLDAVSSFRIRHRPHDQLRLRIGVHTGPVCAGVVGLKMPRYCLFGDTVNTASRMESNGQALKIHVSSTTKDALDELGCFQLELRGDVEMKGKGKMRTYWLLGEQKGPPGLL
The experiment in a line: Stimulation of cGMP production in NIH3T3 cells. Type of experiment: cell-based, Murine. To be noted: NIH3T3 cells, normalized to cell number and cGMP production with 1 uM wtCNP22; for cGMP response relative to 1 uM CNP22 (%) at 0.01 µM: read-out: cGMP Response rel. to 1 uM CNP22, 10 nM; for cGMP response relative to 1 uM CNP22 (%) at 1 µM: read-out: cGMP Response rel. to 1 uM CNP22, 1 uM.

This is an account of results in patent US8377884B2, “Variants of C-type natriuretic peptides” (Biomarin Pharmaceutical Inc., priority 2007, dated 2013).

Bridge positions count the residues as written; N and C are the ends. Square brackets hold non-standard residues; d marks the D form. Ends that are not written are not given here. Peptide text beside a SMILES is read from it. PEO12 = monodispersed PEO, 0.6 kDa; tBuAla = CC(C)(C)C[C@H](N)C(=O)O; Cit = NC(=O)NCCC[C@H](N)C(=O)O

For the compound `CC[C@H](C)[C@@H]1NC(=O)[C@H](CCCNC(=N)N)NC(=O)[C@H](CC(=O)O)NC(=O)[C@H](CC(C)C)NC(=O)[C@H](CCCCN)NC(=O)[C@H](CC(C)C)NC(=O)CNC(=O)[C@H](Cc2ccccc2)NC(=O)[C@@H](NC(=O)CNC(=O)[C@H](CCCNC(=N)N)NC(=O)[C@H](CO)NC(=O)[C@H](CC(C)C)NC(=O)CNC(=O)[C@H](CCC(N)=O)NC(=O)[C@H](CCC(N)=O)NC(=O)[C@H](CC(N)=O)NC(=O)[C@H](C)NC(=O)CNC(=O)[C@H](CO)NC(=O)[C@H](CCC(N)=O)NC(=O)[C@@H](NC(=O)CNC(=O)[C@H](CO)NC(=O)[C@H](CO)NC(=O)[C@H](Cc2c[nH]cn2)NC(=O)[C@@H](NC(=O)[C@H](CCC(N)=O)NC(=O)CN)[C@@H](C)O)[C@@H](C)O)CSSC[C@@H](C(=O)O)NC(=O)CNC(=O)[C@H](CC(C)C)NC(=O)CNC(=O)[C@H](CO)NC(=O)[C@H](CCSC)NC(=O)[C@H](CO)NC(=O)CNC1=O` [CN] (H-GQTHSSGTQSGANQQGLSRGCFGLKLDRIGSMSGLGC-OH; disulfide 21-37), under “10 nM natriuretic peptide”, the cGMP response relative to 1 uM CNP22 (%) at 0.01 µM is 12%. In addition, the cGMP response relative to 1 uM CNP22 (%) at 1 µM (1 uM natriuretic peptide) is 115%.

Turning to `CC[C@H](C)[C@@H]1NC(=O)[C@H](CCCNC(=N)N)NC(=O)[C@H](CC(=O)O)NC(=O)[C@H](CC(C)C)NC(=O)[C@H](CCCCN)NC(=O)[C@H](CC(C)C)NC(=O)CNC(=O)[C@H](Cc2ccccc2)NC(=O)[C@@H](NC(=O)CNC(=O)[C@H](CCCNC(=N)N)NC(=O)[C@H](CO)NC(=O)[C@H](CC(C)C)NC(=O)CN)CSSC[C@@H](C(=O)O)NC(=O)CNC(=O)[C@H](CC(C)(C)C)NC(=O)CNC(=O)[C@H](CO)NC(=O)[C@H](CCSC)NC(=O)[C@H](CO)NC(=O)CNC1=O` [AK] (H-GLSRGCFGLKLDRIGSMSG[tBuAla]GC-OH; disulfide 6-22 (inferred); N-terminus and C-terminus assumed), for the setting “10 nM natriuretic peptide”, the cGMP response relative to 1 uM CNP22 (%) at 0.01 µM is 1%. Also, the cGMP response relative to 1 uM CNP22 (%) at 1 µM (1 uM natriuretic peptide) stood at 21%.

As for `CC[C@H](C)[C@@H]1NC(=O)[C@H](CCCNC(=N)N)NC(=O)[C@H](CC(=O)O)NC(=O)[C@H](CC(C)C)NC(=O)[C@H](CCCCN)NC(=O)[C@H](CC(C)C)NC(=O)CNC(=O)[C@H](Cc2ccccc2)NC(=O)[C@@H](NC(=O)CNC(=O)[C@H](CCCNC(=N)N)NC(=O)[C@H](CO)NC(=O)[C@H](CC(C)C)NC(=O)CNC(=O)[C@H](CCCNC(=N)N)NC(=O)[C@@H]2CCCN2C(=O)[C@H](CC(N)=O)NC(=O)[C@H](C)NC(=O)CN)CSSC[C@@H](C(=O)O)NC(=O)CNC(=O)[C@H](CC(C)C)NC(=O)CNC(=O)[C@H](CO)NC(=O)[C@H](CCSC)NC(=O)[C@H](CO)NC(=O)CNC1=O` [CI] (H-GANPRGLSRGCFGLKLDRIGSMSGLGC-OH; disulfide 11-27 (inferred); N-terminus and C-terminus assumed), the cGMP response relative to 1 uM CNP22 (%) at 0.01 µM (10 nM natriuretic peptide) was 50 ± 1%. Moreover, the cGMP response relative to 1 uM CNP22 (%) at 1 µM (1 uM natriuretic peptide) is 105 ± 12%.

Regarding `CC[C@H](C)[C@@H]1NC(=O)[C@H](CCCNC(=N)N)NC(=O)[C@H](CC(=O)O)NC(=O)[C@H](CC(C)C)NC(=O)[C@H](CCC(N)=O)NC(=O)[C@H](CC(C)C)NC(=O)CNC(=O)[C@H](Cc2ccccc2)NC(=O)[C@@H](NC(=O)CNC(=O)[C@H](CCCNC(=N)N)NC(=O)[C@H](CO)NC(=O)[C@H](CC(C)C)NC(=O)CN)CSSC[C@@H](C(=O)O)NC(=O)CNC(=O)[C@H](CC(C)C)NC(=O)CNC(=O)[C@H](CO)NC(=O)[C@H](CCSC)NC(=O)[C@H](CO)NC(=O)CNC1=O` [BG] (H-GLSRGCFGLQLDRIGSMSGLGC-OH; disulfide 6-22), the cGMP response relative to 1 uM CNP22 (%) at 0.01 µM (10 nM natriuretic peptide) came out at 9%. The cGMP response relative to 1 uM CNP22 (%) at 1 µM (1 uM natriuretic peptide) turned out to be 45%.

In the case of `CC[C@H](C)[C@@H]1NC(=O)[C@H](CCCNC(=N)N)NC(=O)[C@H](CC(=O)O)NC(=O)[C@H](CC(C)C)NC(=O)[C@H](CCCCN)NC(=O)[C@H](CC(C)C)NC(=O)CNC(=O)[C@H](Cc2ccccc2)NC(=O)[C@@H](N)CSSC[C@@H](C(=O)O)NC(=O)CNC(=O)[C@H](CC(C)C)NC(=O)CNC(=O)[C@H](CO)NC(=O)[C@H](CCSC)NC(=O)[C@H](CO)NC(=O)CNC1=O` [AX] (H-CFGLKLDRIGSMSGLGC-OH; disulfide 1-17 (inferred); N-terminus and C-terminus assumed), the cGMP response relative to 1 uM CNP22 (%) at 0.01 µM (10 nM natriuretic peptide) was found to be 18%. Also, the cGMP response relative to 1 uM CNP22 (%) at 1 µM (1 uM natriuretic peptide) was found to be 69%.

For the compound `CC[C@H](C)[C@@H]1NC(=O)[C@H](CCCNC(=N)N)NC(=O)[C@H](CC(=O)O)NC(=O)[C@H](CC(C)C)NC(=O)[C@H](CCCNC(N)=O)NC(=O)[C@H](CC(C)C)NC(=O)CNC(=O)[C@H](Cc2ccccc2)NC(=O)[C@@H](NC(=O)CNC(=O)[C@H](CCCNC(=N)N)NC(=O)[C@H](CO)NC(=O)[C@H](CC(C)C)NC(=O)CN)CSSC[C@@H](C(=O)O)NC(=O)CNC(=O)[C@H](CC(C)C)NC(=O)CNC(=O)[C@H](CO)NC(=O)[C@H](CCSC)NC(=O)[C@H](CO)NC(=O)CNC1=O` [BF] (H-GLSRGCFGL[Cit]LDRIGSMSGLGC-OH; disulfide 6-22 (inferred); N-terminus and C-terminus assumed), the cGMP response relative to 1 uM CNP22 (%) at 0.01 µM (10 nM natriuretic peptide) is 6%. Further, the cGMP response relative to 1 uM CNP22 (%) at 1 µM (1 uM natriuretic peptide) was found to be 33%.

Turning to `CC[C@H](C)[C@@H]1NC(=O)[C@H](CCCNC(=N)N)NC(=O)[C@H](CC(=O)O)NC(=O)[C@H](CC(C)C)NC(=O)[C@H](CCCCN)NC(=O)[C@H](CC(C)C)NC(=O)CNC(=O)[C@H](Cc2ccccc2)NC(=O)[C@@H](NC(=O)CNC(=O)[C@H](CCCNC(=N)N)NC(=O)[C@H](CO)NC(=O)[C@H](CC(C)C)NC(=O)CNC(=O)[C@H](CCC(N)=O)NC(=O)[C@H](CCC(N)=O)NC(=O)[C@H](CC(N)=O)NC(=O)[C@H](C)NC(=O)CN)CSSC[C@@H](C(=O)O)NC(=O)CNC(=O)[C@H](CC(C)C)NC(=O)CNC(=O)[C@H](CO)NC(=O)[C@H](CCSC)NC(=O)[C@H](CO)NC(=O)CNC1=O` [CH] (H-GANQQGLSRGCFGLKLDRIGSMSGLGC-OH; disulfide 11-27 (inferred); N-terminus and C-terminus assumed), the cGMP response relative to 1 uM CNP22 (%) at 0.01 µM (10 nM natriuretic peptide) stood at 44 ± 8%. The cGMP response relative to 1 uM CNP22 (%) at 1 µM (1 uM natriuretic peptide) is 95 ± 11%.

As to `CC[C@H](C)[C@@H]1NC(=O)[C@H](CCCNC(=N)N)NC(=O)[C@H](CC(=O)O)NC(=O)[C@H](CC(C)C)NC(=O)[C@H](CCCNC(=N)N)NC(=O)[C@H](CC(C)C)NC(=O)CNC(=O)[C@H](Cc2ccccc2)NC(=O)[C@@H](NC(=O)CNC(=O)[C@H](CCCNC(=N)N)NC(=O)[C@H](CO)NC(=O)[C@H](CC(C)C)NC(=O)CN)CSSC[C@@H](C(=O)O)NC(=O)CNC(=O)[C@H](CC(C)C)NC(=O)CNC(=O)[C@H](CO)NC(=O)[C@H](CCSC)NC(=O)[C@H](CO)NC(=O)CNC1=O` [BH] (H-GLSRGCFGLRLDRIGSMSGLGC-OH; disulfide 6-22), for the setting “10 nM natriuretic peptide”, the cGMP response relative to 1 uM CNP22 (%) at 0.01 µM was found to be 12%. Moreover, where the note is “1 uM natriuretic peptide”, the cGMP response relative to 1 uM CNP22 (%) at 1 µM came out at 80%.

Turning to “PEO12-CNP22, K4R: CNP22, K4R conjugated at the N-terminus to PEO12 (PEO12-GLSRGCFGLKLDRIGSMSGLGC; disulfide 6-22 (inferred); UniProt P23582 105-126, looked up, variant K4R)”, the “cGMP Response rel. to 1 uM CNP22, 10 nM” value (10 nM natriuretic peptide) is reported as 13. Besides, the “cGMP Response rel. to 1 uM CNP22, 1 uM” value (1 uM natriuretic peptide) is 44.
